Results published in US20180250393A1, “MANIPULATION OF T CELL AND MAST CELL ACTIVATION BY PIK3IP1” (UNIVERSITY OF PITTSBURGH-OF THE COMMONWEALTH SYSTEM OF …, priority 2017, published 2018).

Test system: Naïve T cells from WT and KO mice
Experiment: Th1 differentiation assay with PI3K/Akt pathway inhibitors, IFN-γ expression by flow cytometry
Format: cell-based, mouse
Conditions: Th1 conditions, all concentrations
Protocol: (A) Naïve T cells from WT and KO mice were cultured under Th1 conditions for three days in the presence of PI3K inhibitors (Akti, LY294002 and IC-87114), re-stimulated with PMA/Ionomycin and analyzed for IFNγ and CD25 expression. (B) Quantitation of A. p values were calculated using two-way ANOVA with Sidak's multiple comparisons test. p values are represented with the following symbols: *0.01-0.05, **0.001-0.01, ***<0.001. Data are representative of more than three experiments.
CD4 T cells from spleens and lymph nodes of naïve mice were purified by magnetic separation using the Miltenyi Biotec naïve CD4 T cell isolation kit (Cat#130-104-453). The purity of the final cell population was >90%. […] Cells were then harvested and analyzed by flow cytometry.
In order to determine whether the difference in Th1 polarization was actually due to the absence of PI3K modulation by TrIP, the Th1 differentiation assay was performed on WT and KO T cells with the addition of moderate concentrations of PI3K/Akt pathway inhibitors. […] At the end of culture, cells were re-stimulated with PMA/Ionomycin and evaluated by flow cytometry for IFN-γ expression. […]

Structure (SMILES): Cc1ccccc1-n1c(Cn2cnc3c(N)ncnc32)nc2cccc(C)c2c1=O [IC-87114]
- relative potency among the three inhibitors for IFN-γ production: most potent inhibitor at all concentrations
